Each structure is given as a SMILES string.

This assay has as its target T1, MoOxdC (Pyricularia oryzae, UniProt G4NLF1).
T1 construct: gene MGG_14061
As to conditions: 50 mM citrate pH 4.0, 37 °C, 30 min; 0.2 mL of 8 mM oxalic acid in 1.5 mL; no added metal.

T1 sequence (G4NLF1 1-500 limits assumed): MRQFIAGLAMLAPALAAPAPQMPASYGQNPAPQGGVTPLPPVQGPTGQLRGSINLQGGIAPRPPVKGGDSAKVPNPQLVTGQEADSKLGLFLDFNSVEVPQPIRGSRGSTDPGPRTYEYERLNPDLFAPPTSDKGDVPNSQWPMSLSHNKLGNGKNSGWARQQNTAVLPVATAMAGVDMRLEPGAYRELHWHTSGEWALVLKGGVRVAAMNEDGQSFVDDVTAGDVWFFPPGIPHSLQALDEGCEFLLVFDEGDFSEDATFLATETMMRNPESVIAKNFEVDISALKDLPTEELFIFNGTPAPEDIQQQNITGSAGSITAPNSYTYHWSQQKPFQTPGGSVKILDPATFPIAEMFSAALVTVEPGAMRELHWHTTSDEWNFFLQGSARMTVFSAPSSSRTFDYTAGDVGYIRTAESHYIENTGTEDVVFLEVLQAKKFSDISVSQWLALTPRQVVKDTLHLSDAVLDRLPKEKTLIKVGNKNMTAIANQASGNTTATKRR

`O=C(O)C(=O)O` [oxalic acid]: the “residual oxalic acid by Fe(III)-sulfosalicylate absorbance at 510 nm; formic aci” value is on record as “The oxalate decarboxylase activity of the purified recombinant MoOxdC protein was analyzed”.
